Laboratory results from PubChem BioAssay (NCI).
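GI50 = concentration required for 50% inhibition of growth. Definition used: TGI = concentration required for complete inhibition of growth.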

Columns and labels:
Test in all cases: growth of human tumour cells (NCI), 384-well format; in the data active = GI50 below about 0.43 µM; inactive = the rest
CCRF-CEM leukemia = tested on: CCRF-CEM leukemia
MDA-MB-231 breast = tested on: MDA-MB-231 breast
PC-3 prostate = tested on: PC-3 prostate
OVCAR-3 ovarian = tested on: OVCAR-3 ovarian
SK-MEL-5 melanoma = tested on: SK-MEL-5 melanoma
OVCAR-4 ovarian = tested on: OVCAR-4 ovarian
MOLT-4 leukemia = tested on: MOLT-4 leukemia
SNB-75 CNS = tested on: SNB-75 CNS
NCI/ADR-RES ovarian = tested on: NCI/ADR-RES ovarian
A549 NSCLC = tested on: A549 NSCLC
786-0 renal = tested on: 786-0 renal
TK-10 renal = tested on: TK-10 renal
CAKI-1 renal = tested on: CAKI-1 renal
MDA-MB-468 breast = tested on: MDA-MB-468 breast
HT29 colon = tested on: HT29 colon
OVCAR-8 ovarian = tested on: OVCAR-8 ovarian
UO-31 renal = tested on: UO-31 renal
KM12 colon = tested on: KM12 colon
HCC-2998 colon = tested on: HCC-2998 colon
MDA-MB-435 melanoma = tested on: MDA-MB-435 melanoma
A498 renal = tested on: A498 renal
SF-268 CNS = tested on: SF-268 CNS
RXF 393 renal = tested on: RXF 393 renal
COLO 205 colon = tested on: COLO 205 colon
MCF7 breast = tested on: MCF7 breast
SF-295 CNS = tested on: SF-295 CNS
SW-620 colon = tested on: SW-620 colon
MALME-3M melanoma = tested on: MALME-3M melanoma
NCI-H322M lung = tested on: NCI-H322M lung
K-562 leukemia = tested on: K-562 leukemia
SNB-19 CNS = tested on: SNB-19 CNS
T-47D breast = tested on: T-47D breast
DU-145 prostate = tested on: DU-145 prostate
SF-539 CNS = tested on: SF-539 CNS
EKVX NSCLC = tested on: EKVX NSCLC
M14 melanoma = tested on: M14 melanoma
SN12C renal = tested on: SN12C renal
HL-60(TB) leukemia = tested on: HL-60(TB) leukemia
RPMI-8226 leukemia = tested on: RPMI-8226 leukemia
IGROV1 ovarian = tested on: IGROV1 ovarian
SK-MEL-28 melanoma = tested on: SK-MEL-28 melanoma
HS 578T breast = tested on: HS 578T breast
LOX IMVI melanoma = tested on: LOX IMVI melanoma
NCI-H460 NSCLC = tested on: NCI-H460 NSCLC
HCT-15 colon = tested on: HCT-15 colon
OVCAR-5 ovarian = tested on: OVCAR-5 ovarian
HOP-92 NSCLC = tested on: HOP-92 NSCLC
U251 glioblastoma = tested on: U251 glioblastoma
SR leukemia = tested on: SR leukemia

CCc1c(C#N)c(S[C@@H](C(N)=O)c2ccccc2)nc(N(C)C)c1C#N
6.06 µM: TGI (RXF 393 renal)
76.8 µM: TGI (SNB-75 CNS)
inactive: GI50 (CCRF-CEM leukemia) > 100 µM | GI50 (MDA-MB-231 breast) 37.7 µM | GI50 (PC-3 prostate) > 100 µM | GI50 (OVCAR-3 ovarian) > 100 µM | GI50 (SK-MEL-5 melanoma) > 100 µM | GI50 (OVCAR-4 ovarian) > 100 µM | GI50 (MOLT-4 leukemia) > 100 µM | GI50 (SNB-75 CNS) 26.4 µM | GI50 (NCI/ADR-RES ovarian) > 100 µM | GI50 (A549 NSCLC) > 100 µM | GI50 ([…]-0 renal) > 100 µM | GI50 (TK-10 renal) > 100 µM | GI50 (CAKI-1 renal) > 100 µM | GI50 (MDA-MB-468 breast) > 100 µM | GI50 (HT29 colon) > 100 µM | GI50 (OVCAR-8 ovarian) 3.77 µM | GI50 (UO-31 renal) > 100 µM | GI50 (KM12 colon) > 100 µM | GI50 (HCC-2998 colon) > 100 µM | GI50 (MDA-MB-435 melanoma) > 100 µM | GI50 (A498 renal) > 100 µM | GI50 (SF-268 CNS) > 100 µM | GI50 (RXF 393 renal) 2.31 µM | GI50 (COLO 205 colon) > 100 µM | GI50 (MCF7 breast) > 100 µM | GI50 (SF-295 CNS) 3.83 µM | GI50 (SW-620 colon) > 100 µM | GI50 (MALME-3M melanoma) 38.1 µM | GI50 (NCI-H322M lung) > 100 µM | GI50 (K-562 leukemia) > 100 µM | GI50 (SNB-19 CNS) > 100 µM | GI50 (T-47D breast) > 100 µM | GI50 (DU-145 prostate) > 100 µM | GI50 (SF-539 CNS) > 100 µM | GI50 (EKVX NSCLC) > 100 µM | GI50 (M14 melanoma) > 100 µM | GI50 (SN12C renal) > 100 µM | GI50 (HL-60(TB) leukemia) > 100 µM | GI50 (RPMI-8226 leukemia) > 100 µM | GI50 (IGROV1 ovarian) > 100 µM | GI50 (SK-MEL-28 melanoma) > 100 µM | GI50 (HS 578T breast) 4.58 µM | GI50 (LOX IMVI melanoma) > 100 µM | GI50 (NCI-H460 NSCLC) > 100 µM | GI50 (HCT-15 colon) > 100 µM | GI50 (OVCAR-5 ovarian) > 100 µM | GI50 (HOP-92 NSCLC) 10.6 µM | GI50 (U251 glioblastoma) > 100 µM | GI50 (SR leukemia) 3.05 µM
> 100 µM: TGI (CCRF-CEM leukemia) | TGI (MDA-MB-231 breast) | TGI (PC-3 prostate) | TGI (OVCAR-3 ovarian) | TGI (SK-MEL-5 melanoma) | TGI (OVCAR-4 ovarian) | TGI (MOLT-4 leukemia) | TGI (NCI/ADR-RES ovarian) | TGI (A549 NSCLC) | TGI (786-0 renal) | TGI (TK-10 renal) | TGI (CAKI-1 renal) | TGI (MDA-MB-468 breast) | TGI (HT29 colon) | TGI (OVCAR-8 ovarian) | TGI (UO-31 renal) | TGI (KM12 colon) | TGI (HCC-2998 colon) | TGI (MDA-MB-435 melanoma) | TGI (A498 renal) | TGI (SF-268 CNS) | TGI (COLO 205 colon) | TGI (MCF7 breast) | TGI (SF-295 CNS) | TGI (SW-620 colon) | TGI (MALME-3M melanoma) | TGI (NCI-H322M lung) | TGI (K-562 leukemia) | TGI (SNB-19 CNS) | TGI (T-47D breast) | TGI (DU-145 prostate) | TGI (SF-539 CNS) | TGI (EKVX NSCLC) | TGI (M14 melanoma) | TGI (SN12C renal) | TGI (HL-60(TB) leukemia) | TGI (RPMI-8226 leukemia) | TGI (IGROV1 ovarian) | TGI (SK-MEL-28 melanoma) | TGI (HS 578T breast) | TGI (LOX IMVI melanoma) | TGI (NCI-H460 NSCLC) | TGI (HCT-15 colon) | TGI (OVCAR-5 ovarian) | TGI (HOP-92 NSCLC) | TGI (U251 glioblastoma) | TGI (SR leukemia)
